Data published in ChEMBL document CHEMBL4715917 (Bioorg Med Chem, 2021).

Key:
NCI-H1975 = experiment: Cytotoxicity against human NCI-H1975 cells harboring T790M/L858R mutant assessed as reduction in cell viability after 72 hrs by MTT assay; format: functional, cell-based; conditions: NCI-H1975, 72 h
[1] = target: Epidermal growth factor receptor (Homo sapiens, UniProt P00533)
Description: Inhibition of recombinant wild type EGFR (696 to C terminal end) (unknown origin) using poly (Glu-Tyr) as substrate preincubated for 30 mins followed by substrate addition and measured after 30 mins by ELISA

[2] = target: Epidermal growth factor receptor (Homo sapiens, UniProt P00533, L858R/T790M)
A549 = experiment: Cytotoxicity against human A549 cells harboring wild type EGFR assessed as reduction in cell viability after 72 hrs by MTT assay; format: functional, cell-based; conditions: A549, 72 h

Sequence of Epidermal growth factor receptor (Homo sapiens, UniProt P00533, L858R/T790M) (P00533 25-1210 T790M/L858R limits assumed): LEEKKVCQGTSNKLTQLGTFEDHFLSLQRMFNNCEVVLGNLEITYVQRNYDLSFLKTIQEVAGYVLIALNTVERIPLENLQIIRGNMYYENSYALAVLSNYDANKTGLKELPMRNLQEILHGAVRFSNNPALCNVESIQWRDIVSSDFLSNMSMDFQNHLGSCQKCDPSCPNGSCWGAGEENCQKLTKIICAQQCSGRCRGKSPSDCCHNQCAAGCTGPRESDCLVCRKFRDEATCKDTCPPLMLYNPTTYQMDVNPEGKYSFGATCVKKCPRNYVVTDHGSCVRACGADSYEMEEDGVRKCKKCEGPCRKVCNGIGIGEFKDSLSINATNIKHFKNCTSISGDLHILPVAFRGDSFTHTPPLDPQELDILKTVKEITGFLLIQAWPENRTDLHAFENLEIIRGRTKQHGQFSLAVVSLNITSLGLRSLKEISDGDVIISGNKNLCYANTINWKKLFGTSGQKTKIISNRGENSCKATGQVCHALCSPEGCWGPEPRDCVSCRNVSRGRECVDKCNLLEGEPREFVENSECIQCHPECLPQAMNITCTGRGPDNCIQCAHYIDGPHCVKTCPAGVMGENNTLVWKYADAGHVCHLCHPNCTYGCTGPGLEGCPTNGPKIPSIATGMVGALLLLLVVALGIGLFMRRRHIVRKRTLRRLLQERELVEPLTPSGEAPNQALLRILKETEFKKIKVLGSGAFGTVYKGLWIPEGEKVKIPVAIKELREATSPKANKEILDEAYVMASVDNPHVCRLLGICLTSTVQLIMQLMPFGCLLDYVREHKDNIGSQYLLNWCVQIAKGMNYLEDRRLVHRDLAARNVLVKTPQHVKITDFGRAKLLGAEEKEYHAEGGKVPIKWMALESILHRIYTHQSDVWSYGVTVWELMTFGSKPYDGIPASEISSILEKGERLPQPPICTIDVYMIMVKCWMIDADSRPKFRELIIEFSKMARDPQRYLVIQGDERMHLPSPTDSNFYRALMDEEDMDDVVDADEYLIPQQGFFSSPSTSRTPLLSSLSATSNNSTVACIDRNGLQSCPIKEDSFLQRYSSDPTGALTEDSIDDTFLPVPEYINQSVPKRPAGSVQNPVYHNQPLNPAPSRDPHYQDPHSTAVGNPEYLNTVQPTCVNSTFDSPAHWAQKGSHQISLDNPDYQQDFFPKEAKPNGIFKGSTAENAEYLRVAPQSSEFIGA
Sequence of Epidermal growth factor receptor (Homo sapiens, UniProt P00533) (P00533 whole entry): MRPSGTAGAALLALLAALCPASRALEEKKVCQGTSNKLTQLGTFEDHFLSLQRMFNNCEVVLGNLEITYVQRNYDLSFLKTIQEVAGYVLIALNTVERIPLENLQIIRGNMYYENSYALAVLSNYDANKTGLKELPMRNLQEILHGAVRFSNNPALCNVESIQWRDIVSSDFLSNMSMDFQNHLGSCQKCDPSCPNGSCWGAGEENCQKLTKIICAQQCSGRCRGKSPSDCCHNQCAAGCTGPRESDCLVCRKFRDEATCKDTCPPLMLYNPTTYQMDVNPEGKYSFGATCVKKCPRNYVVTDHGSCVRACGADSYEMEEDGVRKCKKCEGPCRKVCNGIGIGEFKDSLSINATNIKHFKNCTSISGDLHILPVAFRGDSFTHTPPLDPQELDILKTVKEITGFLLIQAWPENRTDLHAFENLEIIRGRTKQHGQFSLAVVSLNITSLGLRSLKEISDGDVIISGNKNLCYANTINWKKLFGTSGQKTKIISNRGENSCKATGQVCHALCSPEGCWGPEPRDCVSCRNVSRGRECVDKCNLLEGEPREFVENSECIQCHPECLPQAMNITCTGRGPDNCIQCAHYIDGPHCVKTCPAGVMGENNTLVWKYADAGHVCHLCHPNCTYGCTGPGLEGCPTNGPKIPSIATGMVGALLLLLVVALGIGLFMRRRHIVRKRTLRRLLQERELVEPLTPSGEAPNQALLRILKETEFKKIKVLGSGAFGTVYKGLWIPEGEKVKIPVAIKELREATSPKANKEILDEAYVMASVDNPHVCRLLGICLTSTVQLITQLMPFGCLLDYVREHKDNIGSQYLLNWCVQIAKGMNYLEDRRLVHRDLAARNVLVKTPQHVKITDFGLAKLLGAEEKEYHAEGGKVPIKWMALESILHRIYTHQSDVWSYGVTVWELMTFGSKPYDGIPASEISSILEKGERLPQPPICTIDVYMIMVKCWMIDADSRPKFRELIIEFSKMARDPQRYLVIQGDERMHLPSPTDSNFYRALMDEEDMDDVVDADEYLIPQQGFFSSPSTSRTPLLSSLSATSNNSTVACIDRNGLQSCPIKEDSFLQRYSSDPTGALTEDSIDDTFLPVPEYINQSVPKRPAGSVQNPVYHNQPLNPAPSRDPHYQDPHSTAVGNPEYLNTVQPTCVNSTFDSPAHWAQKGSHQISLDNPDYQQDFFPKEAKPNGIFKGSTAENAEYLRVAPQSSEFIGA

Compound	IC50 [1] [nM]	IC50 [2] [nM]	IC50 (NCI-H1975) [nM]	IC50 (A549) [nM]
COc1ccc(-c2c3c4cc(OCCCN(C)C)c(OCCCN(C)C)cc4[nH]c(=O)c3n3ccc4cc(O)c(OC)cc4c23)cc1O	4.6	1.7	1360	2040
COc1ccc(-c2c3c4cc(OC)c(OCCCN(C)C)cc4[nH]c(=O)c3n3ccc4cc(O)c(OC)cc4c23)cc1O	15.5	5.7	350	1040
COc1ccc(-c2c3c4cc(O)c(OCCCN(C)C)cc4[nH]c(=O)c3n3ccc4cc(O)c(OC)cc4c23)cc1O	24.7	10.2	–	–
COc1ccc(-c2c3c4cc(OC)c(O)cc4[nH]c(=O)c3n3ccc4cc(O)c(OC)cc4c23)cc1O	–	–	1.9	15.5

Further lines, with some results ahead:

IC50 [1] [nM]	IC50 [2] [nM]	Compound	IC50 (NCI-H1975) [nM]	IC50 (A549) [nM]
23.6	16.6	COc1ccc(-c2c3c4cc(OCCCN(C)C)c(O)cc4[nH]c(=O)c3n3ccc4cc(O)c(OC)cc4c23)cc1O	–	–
259	65.3	COc1ccc(-c2c3c4cc(OC)c(OC)cc4[nH]c(=O)c3n3ccc4cc(O)c(OC)cc4c23)cc1O	–	–
